Measurements as given in ChEMBL document CHEMBL5131525, “Novel CFTR Modulators for Treating Cystic Fibrosis” (ACS Med Chem Lett, 2022).

Each molecule was assayed against Cystic fibrosis transmembrane conductance regulator (Homo sapiens, UniProt P13569, F508DEL) (assay: Modulation of CFTR F508 deletion mutant expressed in HBE cells assessed as change in short circuit current incubated for 18 to 24 hrs in presence of forskolin, amiloride and human serum by voltage-clamp based chamber assay).
Assay type: cell-based

Chain of Cystic fibrosis transmembrane conductance regulator (P13569 as listed by the source): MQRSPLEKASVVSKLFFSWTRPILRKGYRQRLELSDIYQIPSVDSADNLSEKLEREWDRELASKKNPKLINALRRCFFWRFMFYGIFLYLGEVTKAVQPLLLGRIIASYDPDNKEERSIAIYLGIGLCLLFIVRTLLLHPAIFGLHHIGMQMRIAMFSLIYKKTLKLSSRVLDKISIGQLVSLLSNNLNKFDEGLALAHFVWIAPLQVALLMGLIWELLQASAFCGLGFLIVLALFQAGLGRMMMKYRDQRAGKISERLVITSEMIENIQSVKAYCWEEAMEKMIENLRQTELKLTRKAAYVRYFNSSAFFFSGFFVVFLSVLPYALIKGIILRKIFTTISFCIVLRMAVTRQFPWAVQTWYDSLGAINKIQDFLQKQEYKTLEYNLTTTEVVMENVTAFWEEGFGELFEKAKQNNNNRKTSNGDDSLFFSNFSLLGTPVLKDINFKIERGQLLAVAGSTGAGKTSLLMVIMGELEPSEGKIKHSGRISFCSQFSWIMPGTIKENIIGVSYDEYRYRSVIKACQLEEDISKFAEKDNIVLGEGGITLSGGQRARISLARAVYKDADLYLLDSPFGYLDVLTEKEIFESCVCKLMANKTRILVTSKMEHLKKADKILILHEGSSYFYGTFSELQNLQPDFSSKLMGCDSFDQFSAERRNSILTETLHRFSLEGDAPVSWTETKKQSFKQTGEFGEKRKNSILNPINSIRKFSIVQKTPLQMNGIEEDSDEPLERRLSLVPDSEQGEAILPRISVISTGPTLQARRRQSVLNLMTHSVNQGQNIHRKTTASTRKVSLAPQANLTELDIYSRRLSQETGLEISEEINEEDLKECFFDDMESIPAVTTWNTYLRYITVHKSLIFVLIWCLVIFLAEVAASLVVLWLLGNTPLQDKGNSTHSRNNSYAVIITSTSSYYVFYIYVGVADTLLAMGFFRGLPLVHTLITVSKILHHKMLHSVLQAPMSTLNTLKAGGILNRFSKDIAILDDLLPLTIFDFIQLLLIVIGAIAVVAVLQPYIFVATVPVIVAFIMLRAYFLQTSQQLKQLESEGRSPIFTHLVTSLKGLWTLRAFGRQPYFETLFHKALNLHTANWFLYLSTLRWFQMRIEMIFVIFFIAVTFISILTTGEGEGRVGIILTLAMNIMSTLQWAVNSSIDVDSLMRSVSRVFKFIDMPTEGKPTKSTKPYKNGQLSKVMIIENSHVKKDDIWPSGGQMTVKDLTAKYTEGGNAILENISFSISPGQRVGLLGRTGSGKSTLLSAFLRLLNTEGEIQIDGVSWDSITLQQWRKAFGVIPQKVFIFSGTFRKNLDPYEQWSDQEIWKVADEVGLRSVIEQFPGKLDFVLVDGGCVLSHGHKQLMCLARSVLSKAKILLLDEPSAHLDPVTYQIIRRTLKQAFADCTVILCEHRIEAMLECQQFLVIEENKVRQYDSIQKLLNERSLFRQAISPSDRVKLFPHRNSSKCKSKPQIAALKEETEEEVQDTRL

EC50, < 500 nM:
Nc1cc(C(F)(F)F)c2nc1-c1nnc(o1)[C@@](O)(C(F)(F)F)CCCCC[C@H](CO)O2
Nc1cc(C(F)(F)F)c2nc1-c1nnc(o1)C(O)(C(F)(F)F)CCCCCCO2 (stereo unspecified)
[2H]C1CC[C@@H](C)Oc2nc(c(N)cc2C(F)(F)F)C2=NN=C(O2)[C@@](O)(C(F)(F)F)CC1[2H] (stereo partly specified)
Nc1cc(C(F)(F)F)c2nc1-c1nnc(o1)[C@@](O)(C(F)(F)F)CCCCCCS2
CC1(C)CCCC[C@](O)(C(F)(F)F)C2=NN=C(O2)c2nc(c(C(F)(F)F)cc2N)OC1
C[C@H]1CCCCC[C@](O)(C(F)(F)F)C2=NN=C(O2)c2nc(c(C(F)(F)F)cc2N)O1
